In PMC4287998 (Phytochemistry letters, 2014):

Assays:
[1] = test system: HT-29 human colon cancer cell line; test: Cytotoxicity assay; assay type: cell-based; details: HT-29 cells, two days' incubation, SRB; ED50 > 20 µM considered inactive
[2] = test system: Leishmania mexicana promastigotes; test: Promastigote assay, live/dead parasites by flow cytometry; assay type: cell-based; details: 48 h, read-out: L. mexicana promastigotes IC50
NF-κB (p65) = NF-κB (p65) (Homo sapiens, UniProt Q04206); test: Enzyme-based ELISA NF-κB; assay type: biochemical
Chain of NF-κB (p65) (Q04206 whole entry): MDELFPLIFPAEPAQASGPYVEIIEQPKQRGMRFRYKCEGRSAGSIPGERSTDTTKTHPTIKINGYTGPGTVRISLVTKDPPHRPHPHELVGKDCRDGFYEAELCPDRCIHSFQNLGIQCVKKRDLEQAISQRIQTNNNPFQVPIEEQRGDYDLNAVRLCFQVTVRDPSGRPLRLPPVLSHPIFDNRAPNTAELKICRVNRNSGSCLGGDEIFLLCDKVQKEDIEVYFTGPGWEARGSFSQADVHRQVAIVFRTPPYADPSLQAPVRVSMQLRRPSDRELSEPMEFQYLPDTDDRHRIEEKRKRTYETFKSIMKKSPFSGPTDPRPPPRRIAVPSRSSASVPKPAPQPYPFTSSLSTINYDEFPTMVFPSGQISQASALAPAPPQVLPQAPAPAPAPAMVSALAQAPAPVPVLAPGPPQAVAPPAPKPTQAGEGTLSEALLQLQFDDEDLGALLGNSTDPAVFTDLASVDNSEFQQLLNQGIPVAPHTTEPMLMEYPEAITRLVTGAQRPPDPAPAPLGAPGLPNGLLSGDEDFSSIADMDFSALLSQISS
Chain of NF-κB (p65) (P19838 1-433 partner limits assumed): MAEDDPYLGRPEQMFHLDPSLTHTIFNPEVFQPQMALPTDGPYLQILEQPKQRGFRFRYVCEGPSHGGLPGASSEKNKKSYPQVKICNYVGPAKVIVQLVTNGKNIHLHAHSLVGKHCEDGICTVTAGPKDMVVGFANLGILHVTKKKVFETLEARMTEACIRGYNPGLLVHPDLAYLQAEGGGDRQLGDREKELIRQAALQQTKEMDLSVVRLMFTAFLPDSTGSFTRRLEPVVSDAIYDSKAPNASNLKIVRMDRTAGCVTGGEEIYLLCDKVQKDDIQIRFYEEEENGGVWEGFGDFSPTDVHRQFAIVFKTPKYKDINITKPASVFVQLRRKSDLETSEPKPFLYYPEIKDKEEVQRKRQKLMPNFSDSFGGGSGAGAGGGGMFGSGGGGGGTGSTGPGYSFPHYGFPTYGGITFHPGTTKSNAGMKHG

Compound	HT-29 ED50 [1]	IC50 [2]	IC50 (NF-κB (p65))
21-deoxy-N(4)-methyl-21-oxo-N(4),21-secotalpinine [Compound 2]	>20 µM		
COc1ccc([C@@]23Oc4cc(OC)cc(OC)c4[C@]2(O)[C@H](O)[C@H](C(=O)N(C)C)[C@H]3c2ccccc2)cc1 [Rocaglamide, reference compound]	0.005 µM		
C/C=C1/C[N+]2(C)CC[C@@]34C[C@H]5[C@@H]6C[C@H]7c8c(c9ccccc9n8C)C[C@@H]([C@@H]6CO[C@@]5(C)O[C@@]35[C@@H]2C[C@@H]1[C@@H](C(=O)OC)N5c1ccccc14)N7C.[Cl-] (stereo partly drawn) [Compound 10, villalstonidine E]	6.5 µM		
C[C@@H]1OC[C@@H]2[C@@H](C[C@H]3c4c(c5ccccc5n4C)C[C@@H]2N3C)[C@H]1CO [Compound 5, macrocarpine B]		> 200 µM	> 20 µM
CC(=O)O[C@H]1C(=O)[C@@]2(C)[C@H]([C@H](OC(=O)c3ccccc3)[C@]3(O)C[C@H](OC(=O)[C@H](O)[C@@H](NC(=O)c4ccccc4)c4ccccc4)C(C)=C1C3(C)C)[C@]1(OC(C)=O)CO[C@@H]1C[C@@H]2O [Paclitaxel, reference compound]	0.006 µM		
villalstonine N(4)-oxide [Compound 8]	>20 µM		
villalstonidine D [Compound 9]	>20 µM		
C[C@@H]1[C@H](O)[C@@H](C)/C=C/C=C/C=C/C=C/C=C/C=C/C=C/[C@H](O[C@@H]2O[C@H](C)[C@@H](O)[C@H](N)[C@@H]2O)C[C@@H]2O[C@](O)(C[C@@H](O)C[C@@H](O)[C@H](O)CC[C@@H](O)C[C@@H](O)CC(=O)O[C@H]1C)C[C@H](O)[C@H]2C(=O)O [Amphotericin B, reference compound]		0.09 µM	
CC(=O)C1=COC[C@@H]2[C@H]1C[C@H]1c3c(c4ccccc4n3C)C[C@@H]2N1C [Compound 4, alstonerine]	>20 µM	145 µM	> 20 µM
C/C=C1\CN2CCC34CC5C6CC7c8c(c9ccccc9n8C)CC(C6COC5(C)OC35C2CC1C(C(=O)OC)N5c1ccccc14)N7C (stereo not drawn) [Compound 7, villalstonine]	8.0 µM		
C/C=C1/CN2[C@H]3C[C@@H]1[C@@H](CO)[C@@H]2Cc1c3n(C)c2ccccc12 [Compound 6, affinisine]	>20 µM		
CC1=C(C=O)[C@@H]2C[C@H]3c4c(c5ccccc5n4C)C[C@@H]([C@@H]2CO1)N3C [Compound 3, alstonerinal]	8.6 µM	105 µM	> 20 µM
N(4)-methyltalpinine [Compound 1]	>20 µM		
